Several values for one entry are separate records, joined by “and”; a condition that tells them apart may be missing. Equal values may be shown once. Read-outs that look alike come from different tables or passages of the source.
How the values were obtained:
PgDPP11 = target: T1, PgDPP11 (Porphyromonas gingivalis, UniProt B2RID1); test: Inhibition of PgDPP11 enzymatic activity on Leu-Asp-MCA; assay type: biochemical; details: for Ki: Cheng-Prusoff equation; for remaining activity at 100 µM: inhibitor and synthetic substrate (Leu-Asp-MCA) 100 µM, 100% = activity without inhibitor, read-out: Residual activity (%)
T1 construct: signal peptide of DAP BIII (Pseudoxanthomonas mexicana WO24) (N, cleaved yes); made in house; host or cells: E. coli BL21 Gold(DE3), pET22b
T1 sequence (B2RID1 22-720): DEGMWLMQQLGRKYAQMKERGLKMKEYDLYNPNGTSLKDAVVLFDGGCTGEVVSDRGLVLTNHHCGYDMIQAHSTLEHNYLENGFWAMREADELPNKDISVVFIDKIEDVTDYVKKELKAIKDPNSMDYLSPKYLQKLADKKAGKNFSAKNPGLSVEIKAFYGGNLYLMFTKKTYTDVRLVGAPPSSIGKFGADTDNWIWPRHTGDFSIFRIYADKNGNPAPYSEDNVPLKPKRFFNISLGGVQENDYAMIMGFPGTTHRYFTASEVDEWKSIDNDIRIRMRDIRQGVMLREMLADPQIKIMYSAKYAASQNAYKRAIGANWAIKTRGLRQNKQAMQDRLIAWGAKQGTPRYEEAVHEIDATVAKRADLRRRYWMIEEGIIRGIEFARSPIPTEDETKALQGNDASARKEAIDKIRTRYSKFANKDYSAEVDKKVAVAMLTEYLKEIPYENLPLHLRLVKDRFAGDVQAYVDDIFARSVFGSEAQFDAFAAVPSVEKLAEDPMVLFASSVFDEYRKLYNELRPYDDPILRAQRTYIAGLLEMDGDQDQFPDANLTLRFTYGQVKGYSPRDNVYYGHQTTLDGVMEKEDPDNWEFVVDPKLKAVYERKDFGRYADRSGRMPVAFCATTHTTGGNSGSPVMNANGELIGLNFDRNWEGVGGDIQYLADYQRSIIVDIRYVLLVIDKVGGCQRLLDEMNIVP
Protocol: We evaluated the inhibitory effects of the 13 commercially available candidate compounds obtained by the in silico screening described above against the enzymatic activity of PgDPP11 on the synthetic substrate Leu-Asp-MCA (4-methylcoumaryl-7-amide) (Fig. 5). Each compound was first tested at a concentration of 100 μM.
Figure 5 Inhibitory effects of 13 candidate compounds obtained by multifilter in silico screening. […] Standard deviations were obtained from three independent experiments.
(§1) Thirteen of fifteen final candidate compounds from the in silico screening described above were purchased from Namiki Shoji Co., Ltd. (Tokyo, Japan). Half-maximal inhibitory concentration (IC50) values were determined by fitting to a sigmoidal curve (4-parameter logistic curve) using ImageJ[60] Competitive inhibition rates were measured using different concentrations of each inhibitor in a reaction buffer containing 50 mM sodium phosphate buffer (pH 8.0), 5 mM EDTA and 0.005% Tween 20 at 298 K for 20 min and using 100 µM Leu-Asp-MCA (4-methylcoumaryl-7-amide) as the substrate for DPP11s. For DPP7s, 100 µM Met-Leu-MCA was used as the substrate. The concentrations of PgDPP11, PgDPP7, SmDPP11 and SmDPP7 were 1, 10, 0.5 and 5 nM, respectively. The inhibitor concentrations were 1000, 500, 250, 125, 62.5, 31.3 and 15.6 µM. Standard deviations were calculated from three independent experiments. Fluorescence intensity was measured with excitation at 355 nm and emission at 460 nm using an Infinite 200 PRO microplate reader. Inhibition constants (Ki) were calculated using the Cheng-Prusoff equation[61].

SmDPP11 = SmDPP11 (Stenotrophomonas maltophilia, UniProt B4SNQ8); test: Inhibition of SmDPP11 enzymatic activity on Leu-Asp-MCA; assay type: biochemical; details: for Ki / remaining activity at 100 µM: SmDPP11; for Ki: Cheng-Prusoff equation, 100 µM Leu-Asp-MCA; for remaining activity at 100 µM: inhibitor and synthetic substrate (Leu-Asp-MCA) 100 µM, 100% = activity without inhibitor, read-out: Residual activity (%)
Chain of SmDPP11 (B4SNQ8 24-715 limits assumed): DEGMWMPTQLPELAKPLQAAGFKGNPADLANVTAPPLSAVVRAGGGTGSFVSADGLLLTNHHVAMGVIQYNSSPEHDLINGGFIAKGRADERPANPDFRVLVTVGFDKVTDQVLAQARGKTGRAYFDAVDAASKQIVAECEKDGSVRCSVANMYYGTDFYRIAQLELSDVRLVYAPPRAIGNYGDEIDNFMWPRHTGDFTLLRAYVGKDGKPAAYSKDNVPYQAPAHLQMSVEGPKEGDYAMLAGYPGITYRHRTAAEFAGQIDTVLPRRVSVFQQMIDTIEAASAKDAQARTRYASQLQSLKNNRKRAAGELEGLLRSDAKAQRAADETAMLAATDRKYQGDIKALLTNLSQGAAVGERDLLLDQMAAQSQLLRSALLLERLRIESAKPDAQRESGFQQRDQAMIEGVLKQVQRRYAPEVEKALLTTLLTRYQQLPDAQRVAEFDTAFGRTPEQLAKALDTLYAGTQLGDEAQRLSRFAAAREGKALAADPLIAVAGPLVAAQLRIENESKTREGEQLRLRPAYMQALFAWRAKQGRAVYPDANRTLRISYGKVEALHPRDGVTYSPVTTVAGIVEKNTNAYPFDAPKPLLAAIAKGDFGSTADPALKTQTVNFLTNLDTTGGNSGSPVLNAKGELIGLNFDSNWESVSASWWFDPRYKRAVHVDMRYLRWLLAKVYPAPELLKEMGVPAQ
Description: (§2) To examine whether SH-5 is a universal inhibitor of S46 peptidases or is specific for PgDPP11, we evaluated the inhibitory effects of SH-5 against PgDPP7. In addition, the inhibitory effects of SH-5 against DPP7 and DPP11 from Stenotrophomonas maltophilia (SmDPP7 and SmDPP11, respectively) were also examined as another reference set of S46 peptidases in the same organism.
as §1

PgDPP7 = PgDPP7 (Porphyromonas gingivalis, UniProt Q7MWU6); test: Inhibition of PgDPP7 enzymatic activity on Met-Leu-MCA; assay type: biochemical; details: for remaining activity at 100 µM: read-out: Residual activity (%)
Chain of PgDPP7 (Q7MWU6 entry or part of it): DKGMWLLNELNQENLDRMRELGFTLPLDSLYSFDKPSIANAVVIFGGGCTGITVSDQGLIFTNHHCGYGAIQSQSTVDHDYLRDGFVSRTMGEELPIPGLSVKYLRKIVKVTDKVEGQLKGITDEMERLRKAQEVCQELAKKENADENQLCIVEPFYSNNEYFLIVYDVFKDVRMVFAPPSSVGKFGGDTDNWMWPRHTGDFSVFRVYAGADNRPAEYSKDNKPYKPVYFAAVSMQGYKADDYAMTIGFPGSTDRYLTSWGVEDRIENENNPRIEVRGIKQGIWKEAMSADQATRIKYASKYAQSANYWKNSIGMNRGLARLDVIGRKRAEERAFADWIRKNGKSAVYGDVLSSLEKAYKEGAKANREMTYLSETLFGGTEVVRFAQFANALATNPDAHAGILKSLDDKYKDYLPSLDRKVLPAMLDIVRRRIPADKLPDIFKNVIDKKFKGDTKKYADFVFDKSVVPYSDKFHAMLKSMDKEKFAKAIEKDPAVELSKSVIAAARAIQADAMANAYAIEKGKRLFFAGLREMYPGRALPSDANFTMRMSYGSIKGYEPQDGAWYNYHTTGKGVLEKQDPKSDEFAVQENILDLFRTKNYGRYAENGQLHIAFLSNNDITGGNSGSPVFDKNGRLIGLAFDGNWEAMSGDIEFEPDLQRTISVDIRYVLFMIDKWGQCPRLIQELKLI
Description: as §2, §1

SmDPP7 = SmDPP7 (Stenotrophomonas maltophilia, UniProt B4SLK2); test: Inhibition of SmDPP7 enzymatic activity on Met-Leu-MCA; assay type: biochemical; details: for remaining activity at 100 µM: read-out: Residual activity (%)
Chain of SmDPP7 (B4SLK2 entry or part of it): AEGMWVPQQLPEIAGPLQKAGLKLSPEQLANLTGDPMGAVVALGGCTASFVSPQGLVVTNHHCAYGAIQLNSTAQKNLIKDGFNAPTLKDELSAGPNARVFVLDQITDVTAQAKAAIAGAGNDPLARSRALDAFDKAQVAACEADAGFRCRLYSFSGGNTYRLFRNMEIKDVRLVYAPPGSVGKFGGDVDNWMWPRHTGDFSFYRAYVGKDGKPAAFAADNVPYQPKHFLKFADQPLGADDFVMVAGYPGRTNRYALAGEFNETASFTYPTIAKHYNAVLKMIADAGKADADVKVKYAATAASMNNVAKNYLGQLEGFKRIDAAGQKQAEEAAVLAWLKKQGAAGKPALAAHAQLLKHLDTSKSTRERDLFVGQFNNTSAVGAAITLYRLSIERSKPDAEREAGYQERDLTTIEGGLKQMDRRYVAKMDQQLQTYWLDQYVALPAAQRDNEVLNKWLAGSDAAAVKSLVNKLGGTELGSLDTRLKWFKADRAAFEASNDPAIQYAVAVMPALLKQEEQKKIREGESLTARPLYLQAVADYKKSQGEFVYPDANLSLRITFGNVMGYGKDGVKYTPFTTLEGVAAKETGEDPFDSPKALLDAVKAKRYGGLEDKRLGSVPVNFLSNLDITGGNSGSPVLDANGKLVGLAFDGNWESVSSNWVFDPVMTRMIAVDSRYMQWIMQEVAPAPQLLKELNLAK
Description: as §2, §1

P. gingivalis strain W83 = test: Antibacterial assay, growth of P. gingivalis (OD 600 nm); assay type: cell-based; details: Porphyromonas gingivalis; for IC50: strain W83, optical density at 600 nm, 48 h anaerobic, read-out: IC50, inhibition of growth of P. gingivalis
Protocol: (§3) The inhibitory effects of SH-5 and the lipophilic analog NPPB against growth of P. gingivalis strain W83 were evaluated by monitoring optical density at 600 nm (Fig. 6, closed squares). […] The maximal percent inhibition values for SH-5 and NPPB were 68% at 1 mM and 99% at 100 μM, respectively.
(§4) Antibacterial assays against P. gingivalis strain W83 and E. coli strain K12 were performed as previously described[62],[63]. P. gingivalis cells were cultured in anaerobic bacterium culture medium (ABCM, Eiken Chemical, Tokyo, Japan) containing 0.001% menadione under anaerobic conditions at 37 °C for 48 h. E. coli cells were grown in M9 medium with 1% glucose with shaking at 37 °C for 24 h. All compounds were dissolved in DMSO at stock concentrations of 100 mM. […] Growth of P. gingivalis and E. coli with compounds was determined as the optical density at 600 nm after incubation.

E. coli strain K12 = test: Antibacterial assay, growth of E. coli (OD 600 nm); assay type: cell-based; details: at the concentrations used for the inhibition of P. gingivalis growth
Protocol: as §3, §4

ClC-ec1 = test system: ClC-ec1; set-up: method as in PMID 23177200; details: cited from earlier work
ClC-2 = test system: ClC-2; set-up: method as in ref [1] of Table S1; details: Rat, UniProt P35525; ref [1] of Table S1; cited from earlier work
ClC-5 = test system: ClC-5; set-up: method as in ref [2] of Table S1; details: Mouse, UniProt Q9WVD4; ref [2] of Table S1; cited from earlier work
ClC-6 = test system: ClC-6; set-up: method as in ref [3] of Table S1; details: Human, UniProt P51797; ref [3] of Table S1; cited from earlier work
ClC-7 = test system: ClC-7; set-up: method as in ref [4] of Table S1; details: Human, UniProt P51798; ref [4] of Table S1; cited from earlier work
ANO-1 = test system: ANO-1; set-up: method as in ref [5] of Table S1; details: Mouse, UniProt Q8BHY3; ref [5] of Table S1; cited from earlier work
ANO-2 = test system: ANO-2; set-up: method as in ref [6] of Table S1; details: Mouse, UniProt Q8CFW1; ref [6] of Table S1; cited from earlier work
BEST-1 = test system: BEST-1; set-up: method as in ref [7] of Table S1; details: Mouse, UniProt O88870; ref [7] of Table S1; cited from earlier work
CFTR = test system: CFTR; set-up: method as in ref [8] of Table S1; details: Xenopus, UniProt P26363; ref [8] of Table S1; cited from earlier work

SMILES	inhibitory effect against PgDPP11 (in words) (PgDPP11)	Ki (PgDPP11; PgDPP11, 100 µM Leu-Asp-MCA)	remaining activity at 100 µM (PgDPP11; PgDPP11)	inhibitory effect against SmDPP11 (in words) (SmDPP11)	Ki (SmDPP11)	remaining activity at 100 µM (SmDPP11)	inhibitory effect against PgDPP7 (in words) (PgDPP7)	inhibitory effect against SmDPP7 (in words) (SmDPP7)	IC50 (P. gingivalis strain W83)	toxicity toward E. coli (growth) (E. coli strain K12)	also measured
NC(=O)c1ccc(SCC(=O)O)c([N+](=O)[O-])c1 [SH-5_3, 2-(4-carbamoyl-2-nitrophenyl)sulfanylacetic acid]	significant but relatively weak inhibitory effect										IC50 (PgDPP11; PgDPP11, dose-response 15.6-1000 μM, 100 µM Leu-Asp-MCA): ~1070 µM
NCCNc1ccc([N+](=O)[O-])cc1C(=O)O [SH-5, 2-[(2-aminoethyl)amino]-5-nitrobenzoic acid]	significant inhibitory effects	~8.45 µM and 8.45 µM	62.9 ± 0.1%	significant inhibitory effects	24.9 ± 0.5 µM	48 ± 1.1%	significant inhibitory effects	significant inhibitory effects	687 µM	not toxic	inhibition at 100 µM (PgDPP11; compound tested at 100 μM, substrate Leu-Asp-MCA, read-out: inhibitory effect against PgDPP11): > 30%; ligand efficiency (LE) (PgDPP11; roughly calculated as LE = 1.37pIC50/HA): 0.346; Ki (PgDPP7; PgDPP7, Cheng-Prusoff equation, 100 µM Met-Leu-MCA): 52.2 ± 3.3 µM; remaining activity at 100 µM (PgDPP7; PgDPP7, inhibitor and synthetic substrate (Met-Leu-MCA) 100 µM, 100% = activity without inhibitor): 54.4 ± 0.7%; Ki (SmDPP7; SmDPP7, Cheng-Prusoff equation, 100 µM Met-Leu-MCA): 36.6 ± 1.3 µM; remaining activity at 100 µM (SmDPP7; SmDPP7, inhibitor and synthetic substrate (Met-Leu-MCA) 100 µM, 100% = activity without inhibitor): 72.8 ± 0.7%; inhibition at 1000 µM (P. gingivalis strain W83; P. gingivalis W83, at 1 mM, read-out: maximal percent inhibition of growth): 68%
O=C(O)c1cc([N+](=O)[O-])ccc1NCCCc1ccccc1 [NPPB, 5-nitro-2-(3-phenylpropylamino)benzoic acid]	significant inhibitory effects	~15 µM and 15 µM	70.3 ± 0.7%	significant inhibitory effects	84.8 ± 3.1 µM	67.7 ± 0.6%	inactive	inactive	6 µM	not toxic	remaining activity at 100 µM (PgDPP7): 159 ± 5%; remaining activity at 100 µM (SmDPP7): 119 ± 0.3%; inhibition at 100 µM (P. gingivalis strain W83; P. gingivalis W83, at 100 μM, read-out: maximal percent inhibition of growth): 99%; inhibition of ClC-ec1 protein (ClC-ec1): not be inhibited; inhibition of ClC-2 (ClC-2): inhibited; inhibition of ClC-5 (ClC-5): inhibited; inhibition of ClC-6 (ClC-6): inhibited; inhibition of ClC-7 (ClC-7): inhibited; inhibition of ANO-1 (ANO-1): inhibited; inhibition of ANO-2 (ANO-2): inhibited; inhibition of BEST-1 (BEST-1): inhibited; inhibition of CFTR (CFTR): inhibited

— paper PMC6753110, “Fragment-based discovery of the first nonpeptidyl inhibitor of an S46 family peptidase” (Scientific Reports, 2019)
